Data reported in patent US20050124554A1, “Spermidine derivatives for the treatment of chronic neurodegenerative diseases” (priority 2002, published 2005).
Values joined by “and” are separate entries in the source; they are usually repeats but may differ in a detail not shown here. Equal values may be shown once.

Experiments:
[1] = tested on: acute hippocampal slices (CA1 pyramidal cell layer, Schaffer collateral stimulation); assay: Electrophysiology: evoked field responses / synaptic transmission; parameters: species or system Sprague-Dawley rats
Source text: All animal procedures to produce acute hippocampal slices were approved by the Home Office. Male, 250 g, Sprague-Dawley rats were deeply anaesthetised with halothane and decapitated. The brain was quickly removed, and the hippocampi dissected out and then cut into 300 μm thick transverse slices on a vibratome (Leica, Milton Keynes, UK) in cold cutting solution (in mM: 189 sucrose, 2.5 KCl, 26 NaHCO3, 1.2 NaH2PO4, 10 glucose, 5 MgCl2, 0.1 CaCl2) equilibrated with 5% CO2, 95% O2. Slices were transferred to aCSF (in mM: 10 glucose, 125 NaCl, 5 KCl, 26 NaHCO3, 1 MgCl2, 1.25 NaH2PO4, 2 CaCl2, 10 sucrose) at room temperature, bubbled with 5% CO2 and 95% O2, for at least 1 h before use.
Slices were then transferred to a submerged perfusion chamber (2 ml volume) for the electrophysiological recordings and were perfused at 10 ml min^−1 at 25° C. with aCSF equilibrated with 5% CO2 and 95% O2, and allowed to equilibrate for 1 h before manipulations were started. Experimental compounds were applied by bath perfusion. L-Arg3,4 was applied at 300 μM and DNQX was applied at 10 μM final concentration. DNQX was diluted from a 40 mM stock in DMSO (final DMSO of 0.025%). The Schaffer collaterals of CA3 were stimulated at voltages from 0 to 30 V with a constant voltage stimulator (Digitimer, Hertfordshire, UK) via a twisted pair stimulating electrode of polyimide coated stainless steel wire (Plastics One, Roanoke, Va.). Field potential responses were recorded with an Axopatch 200B amplifier (Axon Instruments, Foster City, Calif.) in the fast current clamp mode via a 2M KCl filled glass electrode (2-5 MQ) in the CA1 pyramidal cell layer. Responses were filtered at 2 kHz, digitised at 20 kHz with a Digidata 1320A (Axon Instruments), and stored onto hard disk with Clampex 8.1 software (Axon Instruments) running on a Dell Pentium III PC. Data was analysed in Clampfit 8.1 (Axon Instruments).
Stimulus-response (S/R) curves were generated from stimuli from 0 to 30 V in 2 V increments. Bath perfusion of 300 μM L-Arg3,4 in aCSF was applied for 10 min with a sub-maximal stimulus applied every minute to monitor synaptic transmission. A second S/R curve was generated before the perfusion was switched back to plain aCSF. A sub-maximal stimulus was applied every minute during the 15 min wash period after which a third SIR curve was generated. Perfusion of 10 μM DNQX was then started until the response to the sub-maximal stimulus was completely eliminated which always occurred within 10 min. […] In Clampfit, S/R curves were fit to a sigmoidal function of the form: [formula] where R is the magnitude of the evoked response, Rmax is the maximum response, V50 is the voltage which produces a half maximal response, S is the stimulus voltage, and m is proportional to the slope of the linear region of the sigmoid. Data was compared by one way ANOVA.

models of excitotoxicity = conditions: Hartley & Choi 1989; cited from earlier work
[2] = tested on: superoxide production in organotypic slice cultures (CA1 pyramidal cell layer); assay: Superoxide production monitored fluorescently with hydroethidine (HEt); type: cell-based, Wistar rat; conditions: 10 μM AMPA alone
Method: Hydroethidine (HEt) has been utilised to fluorescently monitor the production of superoxide in primary neuronal cultures [Bindokas et al., (1996), Carriedo et al. (1998)]. A stock solution of HEt was made was made in N2 sparged DMSO (10 mg ml^−1) which was then aliquoted and stored at −80° C. aliquots were used only once before being discarded. Two separate experimental paradigms were employed to test the effect of L-Arg3,4 on superoxide production in response to either AMPA or NMDA stimulation.
For the AMA experiments, organotypic slice cultures were loaded with 1 μg ml^−1 HEt in HEPES buffered salt solution (HSS) (in mM): glucose 10, NaCl 144, KCl 5, HEPES 10, MgCl2 1, CaCl2 2, pH 7.4, for 30 minutes in the dark. All subsequent solutions contained HEt to prevent a decrease in signal due to reporter depletion. Images were acquired once per minute for the duration of the experiment on the same system as described above for assessment of cell death. A 10 minute record of baseline superoxide production was produced before the bathing solution was exchanged for HBSS+BEt containing 10 μM AMPA, again for 10 minutes. As shown previously, stimulation of glutamate receptors with AMPA lead to an increase in superoxide production [Bindokas et al., (1996), Carriedo et al. (1998)]. The bathing solution was then exchanged for HBSS+HEt containing both 10 μM AMPA and 300 μM L-Arg3,4 for 10 minutes to test the effect of L-Arg3,4 on superoxide production. In separate control experiments, 300 μM L-Arg3,4 in HSS was incubated with slices to determine if it affected baseline superoxide production on its own.
Acquired images from the AMPA experiments were then analysed with the OpenLab image analysis package. A region of interest was drawn around the CA1 pyramidal cell layer because this was the cell layer that produced the largest increase in fluorescence in response to AMPA activation. In each image, within the region of interest, the average pixel value was calculated in arbitrary units (AU) to produce a record of fluorescence intensity values over time. A linear regression was then performed on the data to calculate the rate of superoxide production as change in intensity over time (arbitrary units per minute, AU min^−1) for each of the treatments. Data is presented as mean±s.d. Rates of superoxide production were then compared by ANOVA followed by post-hoc comparisons with Bonferroni corrections with significance indicated as * for P<0.05 and ** for P<0.01.

O=c1[nH]c2cc([N+](=O)[O-])c([N+](=O)[O-])cc2[nH]c1=O [DNQX, 6,7-Dinitroquinoxaline-2,3(1H,4H)-dione, reference compound]
time to complete elimination of response / synaptic transmission ([1]; 10 μM, all slices): ≤ 10 min
time to elimination of all transmission ([1]; 10 μM, single slice, sub-maximal stimulus): ≤ 5 min
effect on evoked responses ([1]; bath application, L-Arg3,4 300 μM, DNQX 10 μM): blocked the evoked response completely

C[C@]12N[C@H](Cc3ccccc31)c1ccccc12 [MK-801]
delay of administration at which effectiveness is lost (therapeutic window) (models of excitotoxicity): 30 min and 15 min

Cc1o[nH]c(=O)c1CC(N)C(=O)O (centres unmarked) [AMPA, reference compound]
increase of rate of superoxide production over baseline [2]: approximately 5 fold
rate of superoxide production [2]: 10.65±3.70 AU min-1

COc1ccc2c(c1)[C@]13CCCC[C@@H]1[C@H](C2)N(C)CC3 [dextromethorphan]
delay of administration at which effectiveness is lost (therapeutic window) (models of excitotoxicity): 30 min

N[C@H](CCCP(=O)(O)O)C(=O)O [D-APV]
delay of administration at which effectiveness is lost (therapeutic window) (models of excitotoxicity): 30 min
